Measurements published in patent US11040028B2, “Penicinotam derivative, preparation method and use thereof” (OCEAN UNIVERSITY OF CHINA, priority 2017, dated 2021).

Columns and labels:
Format in all cases: cell-based
[1] = tested on: BHK-21 cells; assay: Anti-fibrosis activity test: inhibition of BHK-21 cell proliferation (CCK-8); settings: Mesocricetus auratus, BHK-21, 48 h, CCK-8, 48 hours after administration
How it was run: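 Read-out: CCK-8 absorbance at 450 nm after 2 h, giving proliferation inhibition (1−Ai/Ao)×100% versus blank control, from which IC50 was derived. Cells had been treated with compounds for 48 h after 24 h adherence at 37° C. Pirfenidone served as positive control.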

[2] = tested on: human lung fibroblasts HFL1; assay: Anti-fibrosis activity test: inhibition of proliferation of human lung fibroblasts HFL1 (CCK-8); settings: Homo sapiens, HFL1, 48 h, human lung fibroblasts HFL1, CCK-8, 48 hours
How it was run: (§1)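 Read-out: absorbance at 450 nm after 2 h with CCK-8, following 48 h of compound exposure of adhered cells (2×10^4 cells/mL, 24 h attachment, 37° C, 5% CO2). Proliferation inhibition was taken relative to the blank control, and IC50 values were calculated from it.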

[3] = tested on: human hepatic stellate cells LX-2; assay: Anti-fibrosis activity test: inhibition of proliferation of human hepatic stellate cells LX-2 (CCK-8); settings: Homo sapiens, 48 h, human hepatic stellate cells LX-2, CCK-8, 48 hours
How it was run: as §1

[4] = tested on: human fibrosarcoma cells HT-1080; assay: Anti-fibrosis activity test: inhibition of proliferation of human fibrosarcoma cells HT-1080 (CCK-8); settings: Homo sapiens, HT-1080, 48 h, human fibrosarcoma cells HT-1080, CCK-8, 48 hours
How it was run: as §1

[5] = tested on: human dermal fibroblasts CCC-ESF-1; assay: Anti-fibrosis activity test: inhibition of proliferation of human dermal fibroblasts CCC-ESF-1 (CCK-8); settings: Fibroblast; human dermal fibroblasts CCC-ESF-1, CCK-8, 48 hours
How it was run: as §1

[6] = tested on: human embryonic lung fibroblast IMR-90; assay: Anti-fibrosis activity test: inhibition of proliferation of human embryonic lung fibroblast IMR-90 (CCK-8); settings: human embryonic lung fibroblast IMR-90, CCK-8, 48 hours
How it was run: as §1

[7] = tested on: cardiac fibroblast RAT-iCell-C002; assay: Anti-fibrosis activity test: inhibition of proliferation of cardiac fibroblast RAT-iCell-C002 (CCK-8); settings: Cardiac fibroblast, 48 h, cardiac fibroblast RAT-iCell-C002, CCK-8, 48 hours
How it was run: as §1

[8] = tested on: mouse macrophages (RAW264.7); assay: Lipopolysaccharide-induced NO secretion in macrophages (Griess); settings: Mus musculus, RAW264.7, 24 h, RAW264.7, LPS 1 μg/ml, a/b isomers given as first/second symbol, read-out: IC50 (μM), inhibition of lipopolysaccharide-induced NO secretion in macrophages
How it was run: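 Absorbance at 548 nm after Griess reagent addition to culture supernatant gave NO content; inhibition rate was derived relative to blank control. Cells were mouse RAW264.7 macrophages exposed to compounds and 1 μg/ml LPS for 24 hours.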

Row | Structure (SMILES) | IC50 [4] [mM] | IC50 [8] [µM] | IC50 [1] [mM] | IC50 [2] [mM] | IC50 [3] [mM] | IC50 [5] [mM] | IC50 [6] [mM] | IC50 [7] [mM]
1 | Cn1c2c(c(=O)c3cc(F)c(N4CCNCC4)cc31)C(=O)n1cccc1-2 [Compound 361a, 7-Fluoro-4-methyl-6-(piperazin-1-yl)-9H-pyrrolizino[1,2-b]quinoline-9,10(4H)-dione] | < 0.05 | 1 to 10 | 0.05 to 5 | 0.05 to 5 | 0.05 to 5 | 0.05 to 5 | 0.05 to 5 | 0.05 to 5
2 | COc1c2c(nc3cc(N4CCNCC4)c(F)cc13)-c1cccn1C2=O [Compound 361b, 7-fluoro-9-methoxy-6-(piperazin-1-yl)-10H-pyrrolizino[1,2-b]quinolin-10-one] | 0.05 to 5 | 1 to 10 | 0.05 to 5 | 0.05 to 5 | 5 to 20 | 0.05 to 5 | 0.05 to 5 | 0.05 to 5
3 | O=C1c2c([nH]c3cc(N4CCNCC4)c(Cl)cc3c2=O)-c2cccn21 [Compound 373a, 7-Chloro-6-(piperazin-1-yl)-9H-pyrrolizino[1,2-b]quinoline-9,10(4H)-dione] | 0.05 to 5 | 0.1 to 1 | 0.05 to 5 | 0.05 to 5 | 0.05 to 5 | 0.05 to 5 | 0.05 to 5 | 0.05 to 5
4 | O=C1c2c(nc3cc(N4CCNCC4)c(Cl)cc3c2O)-c2cccn21 [Compound 373b, 7-chloro-9-hydroxy-6-(piperazin-1-yl)-10H-pyrrolizino[1,2-b]quinolin-10-one] | 0.05 to 5 | 1 to 10 | 0.05 to 5 | 0.05 to 5 | 0.05 to 5 | 0.05 to 5 | 0.05 to 5 | 0.05 to 5
5 | O=C1c2c([nH]c3cc(N4CCNCC4)c(C(F)(F)F)cc3c2=O)-c2cccn21 [Compound 397a, 6-(Piperazin-1-yl)-7-(trifluoromethyl)-9H-pyrrolizino[1,2-b]quinoline-9,10(4H)-dione] | 0.05 to 5 | 0.1 to 1 | 0.05 to 5 | 0.05 to 5 | 0.05 to 5 | 0.05 to 5 | 0.05 to 5 | 0.05 to 5
6 | O=C1c2c(nc3cc(N4CCNCC4)c(C(F)(F)F)cc3c2O)-c2cccn21 [Compound 397b, 9-hydroxy-6-(piperazin-1-yl)-7-(trifluoromethyl)-10H-pyrrolizino[1,2-b]quinolin-10-one] | 0.05 to 5 | 0.1 to 1 | 0.05 to 5 | 0.05 to 5 | 0.05 to 5 | 0.05 to 5 | 0.05 to 5 | 0.05 to 5
7 | O=C1c2c([nH]c3cc(N4CCNCC4)c(OC(F)(F)F)cc3c2=O)-c2cccn21 [Compound 409a, 6-(Piperazin-1-yl)-7-(trifluoromethoxy)-9H-pyrrolizino[1,2-b]quinoline-9,10(4H)-dione] | 0.05 to 5 | 1 to 10 | 0.05 to 5 | 0.05 to 5 | 0.05 to 5 | 0.05 to 5 | 0.05 to 5 | 0.05 to 5
8 | O=C1c2c(nc3cc(N4CCNCC4)c(OC(F)(F)F)cc3c2O)-c2cccn21 [Compound 409b, 9-hydroxy-6-(piperazin-1-yl)-7-(trifluoromethoxy)-10H-pyrrolizino[1,2-b]quinolin-10-one] | 0.05 to 5 | 1 to 10 | 0.05 to 5 | 0.05 to 5 | 0.05 to 5 | 0.05 to 5 | 0.05 to 5 | 0.05 to 5
9 | N#Cc1cccc2c(=O)c3c(n(Cc4ccc(F)cc4)c12)-c1cccn1C3=O [Compound 449a, 4-(4-Fluorobenzyl)-9,10-dioxo-4,10-dihydro-9H-pyrrolizino[1,2-b]quinoline-5-carbonitrile] | 0.05 to 5 | 1 to 10 | 0.05 to 5 | 0.05 to 5 | 0.05 to 5 | 0.05 to 5 | 0.05 to 5 | 0.05 to 5
10 | N#Cc1cccc2c(OCc3ccc(F)cc3)c3c(nc12)-c1cccn1C3=O [Compound 449b, 9-((4-fluorobenzyl)oxy)-10-oxo-10H-pyrrolizino[1,2-b]quinoline-5-carbonitrile] | 0.05 to 5 | 1 to 10 | 0.05 to 5 | 0.05 to 5 | 0.05 to 5 | 0.05 to 5 | 0.05 to 5 | 0.05 to 5
11 | O=C1c2c(n(Cc3ccc(Cl)cc3)c3c(C(F)(F)F)cccc3c2=O)-c2cccn21 [Compound 450a, 4-(4-Chlorobenzyl)-5-(trifluoromethyl)-9H-pyrrolizino[1,2-b]quinoline-9,10(4H)-dione] | 5 to 20 | 1 to 10 | 0.05 to 5 | 0.05 to 5 | 0.05 to 5 | 0.05 to 5 | 0.05 to 5 | 0.05 to 5
12 | O=C1c2c(nc3c(C(F)(F)F)cccc3c2OCc2ccc(Cl)cc2)-c2cccn21 [Compound 450b, 9-((4-chlorobenzyl)oxy)-5-(trifluoromethyl)-10H-pyrrolizino[1,2-b]quinolin-10-one] | 5 to 20 | 1 to 10 | 0.05 to 5 | 0.05 to 5 | 0.05 to 5 | 0.05 to 5 | 0.05 to 5 | 0.05 to 5

Continued, in another order:

Row | IC50 [4] [mM] | IC50 [8] [µM] | Structure (SMILES) | IC50 [1] [mM] | IC50 [2] [mM] | IC50 [3] [mM] | IC50 [5] [mM] | IC50 [6] [mM] | IC50 [7] [mM]
13 | 0.05 to 5 | 1 to 10 | O=C1c2c(n(Cc3ccc(Cl)cc3)c3c(Cl)cccc3c2=O)-c2cccn21 [Compound 451a, 5-Chloro-4-(4-chlorobenzyl)-9H-pyrrolizino[1,2-b]quinoline-9,10(4H)-dione] | 0.05 to 5 | < 0.05 | 0.05 to 5 | 0.05 to 5 | 0.05 to 5 | 0.05 to 5
14 | 0.05 to 5 | 1 to 10 | O=C1c2c(nc3c(Cl)cccc3c2OCc2ccc(Cl)cc2)-c2cccn21 [Compound 451b, 5-chloro-9-((4-chlorobenzyl)oxy)-10H-pyrrolizino[1,2-b]quinolin-10-one] | 0.05 to 5 | < 0.05 | 0.05 to 5 | 0.05 to 5 | 0.05 to 5 | 0.05 to 5
15 | 0.05 to 5 | 1 to 10 | O=C1c2c(n(Cc3ccc(F)cc3)c3c(F)cccc3c2=O)-c2cccn21 [Compound 452a, 5-Fluoro-4-(4-fluorobenzyl)-9H-pyrrolizino[1,2-b]quinoline-9,10(4H)-dione] | 0.05 to 5 | 0.05 to 5 | < 0.05 | 0.05 to 5 | 0.05 to 5 | 0.05 to 5
16 | 0.05 to 5 | 1 to 10 | O=C1c2c(nc3c(F)cccc3c2OCc2ccc(F)cc2)-c2cccn21 [Compound 452b, 5-fluoro-9-((4-fluorobenzyl)oxy)-10H-pyrrolizino[1,2-b]quinolin-10-one] | 0.05 to 5 | 0.05 to 5 | 0.05 to 5 | 0.05 to 5 | 0.05 to 5 | 0.05 to 5
17 | 0.05 to 5 | 0.1 to 1 | O=C1c2c(n(Cc3ccc(Cl)cc3)c3c(F)cccc3c2=O)-c2cccn21 [Compound 453a, 4-(4-Chlorobenzyl)-5-fluoro-9H-pyrrolizino[1,2-b]quinoline-9,10(4H)-dione] | 0.05 to 5 | 0.05 to 5 | 0.05 to 5 | 0.05 to 5 | 0.05 to 5 | 0.05 to 5
18 | 0.05 to 5 | 10 to 50 | O=C1c2c(nc3c(F)cccc3c2OCc2ccc(Cl)cc2)-c2cccn21 [Compound 453b, 9-((4-chlorobenzyl)oxy)-5-fluoro-10H-pyrrolizino[1,2-b]quinolin-10-one] | 0.05 to 5 | 0.05 to 5 | 0.05 to 5 | 0.05 to 5 | 0.05 to 5 | 0.05 to 5
19 | 0.05 to 5 | 0.1 to 1 | N#Cc1cccc2c(=O)c3c(n(Cc4cccc(F)c4)c12)-c1cccn1C3=O [Compound 454a, 4-(3-Fluorobenzyl)-9,10-dioxo-4,10-dihydro-9H-pyrrolizino[1,2-b]quinoline-5-carbonitrile] | 0.05 to 5 | 0.05 to 5 | 0.05 to 5 | 0.05 to 5 | 0.05 to 5 | 0.05 to 5
20 | 0.05 to 5 | 1 to 10 | N#Cc1cccc2c(OCc3cccc(F)c3)c3c(nc12)-c1cccn1C3=O [Compound 454b, 9-((3-fluorobenzyl)oxy)-10-oxo-10H-pyrrolizino[1,2-b]quinoline-5-carbonitrile] | 0.05 to 5 | 0.05 to 5 | 0.05 to 5 | 0.05 to 5 | 0.05 to 5 | 0.05 to 5
